Patent US20100074920A1 (priority 2006, published 2010)
Like-named read-outs stand apart in the source and are kept apart here.

Key:
[1] = system: serum antibodies of test subjects Serum 1B-8B; conditions: sera S1B-S8B; streptavidin immobilized peptide
[2] = system: serum antibodies of test subjects 1-6; test: ELISA on maleimide-activated plates (Cys-immobilized peptides); assay type: binding, human; conditions: Cys-conjugate on maleimide plate; sera 1-6
Method: Peptides containing cysteine were bound through the cysteine sulfhydryl group to maleimide activated plates (Reacti-Bind™ Maleimide activated plates, Pierce). The peptides sequences were as follows:
One hundred microliters of the peptide solution (0.5 nmol of peptide) was added to each well and allowed to react overnight at +4° C.
The unreacted maleimide groups were blocked with 2-mercaptoethanol: 150 μl of 1 mM 2-mercaptoethanol in 10 mM sodium phosphate/0.15 M NaCl/2 mM EDTA, pH 7.2 was added to each well and allowed to react for 1 hour at RT.
The serum obtained from person nr. […] Control wells contained no peptide but both 2-mercaptoethanol and BSA blockings were employed. All incubations were performed in duplicates.

[3] = system: serum antibodies of test subjects 1-6; conditions: N-terminal conjugate on a streptavidin plate; sera 1-6
[4] = system: commercial polyclonal antibody from rabbit; test: ELISA control, peptide coated on maleimide plate; conditions: peptide coated on a maleimide plate; negligible binding without the peptide
Source text: A commercial peptide […] (HM11-peptide), which has been used as a recognition tag on recombinant proteins was used as a control and for testing of analysis of binding between a free core peptide and human antibodies. Due to restricted availability of at least N-terminal sequence the peptide would not be very effective in immunization against the viral as therapy. This peptide is known to be antigenic in animals under immunization conditions and antibodies including polyclonals from rabbit, mice etc.

Row | Substance | binding of serum antibodies (immune response), absorbance at 450 nm [1] | immune response of the 6 sera, order of reactivity [3] | other results
1 | Biotin-aminocaproyl-CRPKVRDQC [Peptide 3B] | unusually high response, especially with a person S5B |  | 
2 | Biotin-aminohexanoyl-SYACKR [Peptide 2] |  | sera 2 and 5 showed strongest immune response before sera 3,4 and 6, while serum 1 showed weakest reaction | immune response of the 6 sera, order of reactivity [2]: reacted with sera similarly but reactions with serum 5 was weaker and the serum 6 showed the strongest response
3 | Biotin-aminocaproyl-CRPWVRGVC [Peptide 4B] | bind generally more strongly antibodies than the corresponding linear peptide 3 |  | 
4 | CYPYDVPDYA [HA11, commercial peptide used as a recognition tag on recombinant proteins; control and core peptide] |  |  | binding of commercial polyclonal antibody from rabbit to the peptide [4]: effective binding
5 | Biotin-aminohexanoyl-PWVRGV [Peptide 3] |  | distinct pattern of immune recognition | 
